Values joined by “and” are separate entries in the source; they are usually repeats but may differ in a detail not shown here. Identical values can stand only once. Toxic doses and inconclusive results are not listed. How the source made its calls: active means survival T/C of 150% or more; inactive means T/C below 125% in these data.
System: BDF1 mice, P388 leukemia ip, median survival T/C
Assay: NCI In Vivo Anticancer Drug Screen. Data for tumor model P388 Leukemia (intraperitoneal) in B6D2F1 (BDF1) mice
Settings: endpoint: median survival time, higher = longer survival
How it was run: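 Vehicle-dosed animals serve as the reference; survival of compound-dosed, tumour-implanted mice is divided by it.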

[1] = dose: 50.0 mg/kg/injection, schedule: Q04DX003 (ip), vehicle: saline with Tween-80
[2] = dose: 100.0 mg/kg/injection, schedule: Q04DX003 (ip), vehicle: saline with Tween-80
[3] = dose: 200.0 mg/kg/injection, schedule: Q04DX003 (ip), vehicle: saline with Tween-80
[4] = dose: 25.0 mg/kg/injection, schedule: Q04DX003 (ip), vehicle: Klucel (hydroxypropylcellulose) (HPC)
[5] = dose: 25.0 mg/kg/injection, schedule: Q04DX003 (ip), vehicle: saline
[6] = dose: 200.0 mg/kg/injection, schedule: Q01DX009 (ip), vehicle: saline with Tween-80
[7] = dose: 400.0 mg/kg/injection, schedule: Q01DX009 (ip), vehicle: saline with Tween-80
[8] = dose: 25.0 mg/kg/injection, schedule: Q01DX009 (ip), vehicle: saline
[9] = dose: 50.0 mg/kg/injection, schedule: Q01DX009 (ip), vehicle: saline with Tween-80
[10] = dose: 100.0 mg/kg/injection, schedule: Q01DX009 (ip), vehicle: saline with Tween-80
[11] = dose: 25.0 mg/kg/injection, schedule: Q01DX009 (ip), vehicle: saline with Tween-80

Measured: T/C

CCN(CC)c1c(C)nnc2c(-c3ccccc3)nnn12
inactive: [1] 97 % of control | [2] 100 % of control | [3] 97 % of control

O=[N+]([O-])c1ccc(-[n+]2nc(-c3ccccc3)nn2-c2ccc(I)cc2)cc1
inactive: dose: 12.5 mg/kg/injection, schedule: Q01DX009 (ip), vehicle: Klucel (hydroxypropylcellulose) (HPC) 100 % of control | dose: 16.5 mg/kg/injection, schedule: Q04DX003 (ip), vehicle: Klucel (hydroxypropylcellulose) (HPC) 90 % of control | dose: 16.5 mg/kg/injection, schedule: Q04DX003 (ip), vehicle: saline 122 % of control | dose: 25.0 mg/kg/injection, schedule: Q01DX009 (ip), vehicle: Klucel (hydroxypropylcellulose) (HPC) 110 % of control | [4] 109 % of control | [5] 109 % of control | dose: 37.5 mg/kg/injection, schedule: Q04DX003 (ip), vehicle: Klucel (hydroxypropylcellulose) (HPC) 100 % of control | dose: 37.5 mg/kg/injection, schedule: Q04DX003 (ip), vehicle: saline 122 % of control

CCOc1ccc(/C=N/NS(=O)(=O)c2ccccc2)cc1OC
inactive: [6] 105 % of control | [7] 100 % of control

NNC12CC3CC(CC(C3)C1)C2
inactive: dose: 6.25 mg/kg/injection, schedule: Q01DX009 (ip), vehicle: saline 95 % of control | dose: 6.25 mg/kg/injection, schedule: Q04DX003 (ip), vehicle: saline 102 % of control | dose: 12.5 mg/kg/injection, schedule: Q01DX009 (ip), vehicle: saline 86 % of control | dose: 12.5 mg/kg/injection, schedule: Q04DX003 (ip), vehicle: saline 100 % of control | [8] 86 % of control | [5] 98 % of control | dose: 50.0 mg/kg/injection, schedule: Q04DX003 (ip), vehicle: saline 115 % of control

O=C(O)Cc1nc(Cl)ccc1Cl
inactive: [9] 106 % of control | [10] 100 % of control | [6] 92 % of control

O=C(O)CNC(=O)CNC(=O)C(Br)Cc1ccccc1 (centres undefined)
inactive: [11] 95 % of control | [4] 104 % of control | [9] 87 % of control | dose: 50.0 mg/kg/injection, schedule: Q04DX003 (ip), vehicle: Klucel (hydroxypropylcellulose) (HPC) 104 % of control | [10] 100 % of control | dose: 100.0 mg/kg/injection, schedule: Q04DX003 (ip), vehicle: Klucel (hydroxypropylcellulose) (HPC) 91 % of control and 100 % of control

OC1CC2CCC(C1)N2CCCN1c2ccccc2Sc2ccc(Cl)cc21 (centres undefined)
inactive: [8] 104 % of control | dose: 50.0 mg/kg/injection, schedule: Q01DX009 (ip), vehicle: saline 91 % of control | dose: 100.0 mg/kg/injection, schedule: Q04DX003 (ip), vehicle: saline 90 % of control

CC(=O)Nc1cccc(N(CCOS(C)(=O)=O)CCOS(C)(=O)=O)c1
inactive: dose: 13.0 mg/kg/injection, schedule: Q04DX003 (ip), vehicle: saline sonified 95 % of control | dose: 20.0 mg/kg/injection, schedule: Q04DX003 (ip), vehicle: saline sonified 95 % of control | dose: 30.0 mg/kg/injection, schedule: Q04DX003 (ip), vehicle: saline sonified 100 % of control

COc1cc2c(cc1OC)C1C(=CCC3c4cc(OC)c(OC)cc4CC[N+]31C)C=C2 (centres undefined)
inactive: dose: 6.25 mg/kg/injection, schedule: Q01DX009 (ip), vehicle: saline with Tween-80 95 % of control | dose: 12.5 mg/kg/injection, schedule: Q01DX009 (ip), vehicle: saline with Tween-80 104 % of control | [11] 116 % of control

CC1(C)OC(C)(C)c2c1nnc(-c1cccc([N+](=O)[O-])c1)[n+]2[O-]
inactive: dose: 50.0 mg/kg/injection, schedule: Q01DX005 (ip), vehicle: saline with Tween-80 88 % of control | dose: 100.0 mg/kg/injection, schedule: Q01DX005 (ip), vehicle: saline with Tween-80 93 % of control | dose: 200.0 mg/kg/injection, schedule: Q01DX005 (ip), vehicle: saline with Tween-80 104 % of control

CC(C)(O)C(NC(N)=O)c1ccccc1 (centres undefined)
inactive: [9] 104 % of control | [10] 101 % of control | [6] 100 % of control

CN=C1c2ccccc2C2(c3ccccc3)C1N2C (centres undefined)
inactive: dose: 37.5 mg/kg/injection, schedule: Q01DX009 (ip), vehicle: saline with Tween-80 104 % of control | dose: 75.0 mg/kg/injection, schedule: Q01DX009 (ip), vehicle: saline with Tween-80 109 % of control | dose: 150.0 mg/kg/injection, schedule: Q01DX009 (ip), vehicle: saline with Tween-80 118 % of control

CCOC(=O)C1CC1Cc1ccccc1 (centres undefined)
inactive: [10] 108 % of control | [2] 104 % of control | [6] 108 % of control | [3] 108 % of control | [7] 120 % of control | dose: 400.0 mg/kg/injection, schedule: Q04DX003 (ip), vehicle: saline with Tween-80 113 % of control

CC1(C2CC(=O)c3c(O)ccc(O)c3C2)OCCO1 (centres undefined)
inactive: dose: 25.0 mg/kg/injection, schedule: Q01DX009 (ip), vehicle: other 107 % of control | dose: 50.0 mg/kg/injection, schedule: Q01DX009 (ip), vehicle: other 100 % of control | dose: 100.0 mg/kg/injection, schedule: Q01DX009 (ip), vehicle: other 98 % of control | dose: 200.0 mg/kg/injection, schedule: Q01DX009 (ip), vehicle: other 98 % of control | dose: 400.0 mg/kg/injection, schedule: Q01DX009 (ip), vehicle: other 116 % of control

CC(=O)Nc1ccc2c(c1)C[N+](C)(C1CCCCC1)CO2 (centres undefined)
inactive: [11] 109 % of control | dose: 25.0 mg/kg/injection, schedule: Q04DX003 (ip), vehicle: saline with Tween-80 95 % of control | [9] 109 % of control | [1] 91 % of control | [2] 95 % of control

O=[N+]([O-])c1ccc(Cl)c(S(=O)O)c1
inactive: dose: 75.0 mg/kg/injection, schedule: Q04DX003 (ip), vehicle: saline 95 % of control | dose: 150.0 mg/kg/injection, schedule: Q04DX003 (ip), vehicle: saline 100 % of control | dose: 300.0 mg/kg/injection, schedule: Q04DX003 (ip), vehicle: saline 95 % of control

Nc1cc[c]([Hg][Cl])cc1
inactive: dose: 1.5 mg/kg/injection, schedule: Q01DX001 (ip), vehicle: Klucel (hydroxypropylcellulose) (HPC) 110 % of control | dose: 3.0 mg/kg/injection, schedule: Q01DX001 (ip), vehicle: Klucel (hydroxypropylcellulose) (HPC) 115 % of control | dose: 6.0 mg/kg/injection, schedule: Q01DX001 (ip), vehicle: Klucel (hydroxypropylcellulose) (HPC) 100 % of control and 104 % of control

From PubChem BioAssay AID328 (DTP/NCI, 2004)
